Test results reported in patent publication US20060167025A1, “Tricyclic amino alcohols, processes for synthesis of same and use of same as anti-inflammatory drugs” (priority 2004, published 2006).
pIC50: −log10 of the molar value.

What was measured:
[1] = biological target: T1, glucocorticoid receptor (GR) (Homo sapiens, UniProt P04150); experiment: Binding to recombinant glucocorticoid receptor, reference [3H]-dexamethasone; details: cytosol preparations of Sf9 cells infected with recombinant baculoviruses coding for GR; [3H]-dexamethasone reference
T1 construct: made in house; host or cells: Sf9 cells infected with recombinant baculovirus (cytosol preparation)
T1 sequence (P04150 1-777): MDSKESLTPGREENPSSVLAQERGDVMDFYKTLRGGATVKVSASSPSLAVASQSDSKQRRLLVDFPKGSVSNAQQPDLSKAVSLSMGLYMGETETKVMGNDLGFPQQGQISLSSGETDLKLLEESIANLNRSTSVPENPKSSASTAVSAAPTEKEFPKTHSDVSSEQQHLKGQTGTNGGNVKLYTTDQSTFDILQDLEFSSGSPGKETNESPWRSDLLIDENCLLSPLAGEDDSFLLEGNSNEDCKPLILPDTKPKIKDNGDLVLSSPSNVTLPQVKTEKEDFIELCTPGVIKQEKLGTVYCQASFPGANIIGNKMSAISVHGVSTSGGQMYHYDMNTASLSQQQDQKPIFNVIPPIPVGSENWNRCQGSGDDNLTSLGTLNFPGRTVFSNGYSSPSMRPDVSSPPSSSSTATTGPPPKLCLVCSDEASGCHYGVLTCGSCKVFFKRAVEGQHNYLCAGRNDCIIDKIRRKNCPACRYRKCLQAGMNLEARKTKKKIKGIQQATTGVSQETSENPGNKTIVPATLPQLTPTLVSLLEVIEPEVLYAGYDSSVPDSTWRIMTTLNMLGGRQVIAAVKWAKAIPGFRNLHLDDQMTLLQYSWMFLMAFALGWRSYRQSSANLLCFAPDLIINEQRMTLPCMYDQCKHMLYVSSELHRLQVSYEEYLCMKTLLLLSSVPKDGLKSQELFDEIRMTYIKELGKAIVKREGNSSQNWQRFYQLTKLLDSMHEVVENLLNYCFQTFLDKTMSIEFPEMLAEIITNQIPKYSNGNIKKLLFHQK
Protocol: (§1) The binding of substances to the glucocorticoid receptor (GR) and other steroid hormone receptors (mineral corticoid receptor (MR), progesterone receptor (PR) and androgen receptor (AR)) is tested with the help of recombinant receptors. Cytosol preparations of Sf9 cells infected with recombinant baculoviruses that code for GR are used for binding tests. In comparison with the reference substance [^3H]-dexamethasone, these substances have a high affinity for GR. An IC50 (GR)=20 nM and IC50 (PR)>1 μM have been obtained for the compound from Example 2.

[2] = tested on: secretion of cytokine IL-8 triggered by lipopolysaccharide (LPS) in the human monocyte cell line THP-1; experiment: Inhibition of LPS-triggered IL-8 secretion in THP-1 cells (ELISA); type: cell-based
Protocol: The inventive compounds of general formula (I) inhibit the secretion of cytokine IL-8 triggered by lipopolysaccharide (LPS) in the human monocyte cell line THP-1. The concentration of cytokines was determined in the supernatant using commercially available ELISA kits.

[3] = biological target: T2, progesterone receptor (PR) (Homo sapiens, UniProt P06401); experiment: Binding to recombinant progesterone receptor
T2 sequence (P06401 1-933): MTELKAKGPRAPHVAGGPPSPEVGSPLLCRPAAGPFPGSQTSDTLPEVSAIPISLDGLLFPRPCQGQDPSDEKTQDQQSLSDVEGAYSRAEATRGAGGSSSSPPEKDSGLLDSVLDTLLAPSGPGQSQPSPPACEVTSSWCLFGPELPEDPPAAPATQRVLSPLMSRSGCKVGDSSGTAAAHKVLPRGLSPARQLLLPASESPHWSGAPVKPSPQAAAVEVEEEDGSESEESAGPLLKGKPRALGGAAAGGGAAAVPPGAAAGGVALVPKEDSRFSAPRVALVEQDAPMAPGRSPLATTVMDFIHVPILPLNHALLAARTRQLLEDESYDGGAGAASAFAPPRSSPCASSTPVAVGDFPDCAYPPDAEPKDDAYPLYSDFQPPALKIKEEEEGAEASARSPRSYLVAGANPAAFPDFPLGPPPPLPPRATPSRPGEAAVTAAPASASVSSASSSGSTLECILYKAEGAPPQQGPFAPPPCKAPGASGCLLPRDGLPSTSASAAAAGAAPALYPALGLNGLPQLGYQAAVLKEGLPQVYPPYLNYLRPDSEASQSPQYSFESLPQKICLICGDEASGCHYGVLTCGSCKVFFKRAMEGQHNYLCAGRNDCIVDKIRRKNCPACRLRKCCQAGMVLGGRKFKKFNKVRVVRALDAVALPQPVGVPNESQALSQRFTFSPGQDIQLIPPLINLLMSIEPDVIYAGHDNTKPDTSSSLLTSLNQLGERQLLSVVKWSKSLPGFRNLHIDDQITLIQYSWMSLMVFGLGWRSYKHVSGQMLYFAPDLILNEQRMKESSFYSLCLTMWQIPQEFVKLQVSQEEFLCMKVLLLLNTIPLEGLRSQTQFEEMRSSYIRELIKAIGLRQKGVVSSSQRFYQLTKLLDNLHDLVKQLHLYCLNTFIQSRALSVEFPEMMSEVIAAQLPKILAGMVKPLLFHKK
Protocol: as §1

**Q.** Which results are given for `Cc1ccc2c(NC3c4ccc(F)c5c4C(CCO5)CC3(O)C(F)(F)F)cccc2n1` (mixture of isomers) [Example 2, 9-Fluoro-6-[(2-methylquinolin-5-yl)amino]-5-(trifluoromethyl)-2,3,3a,4,5,6-hexahydrobenzo[de]chromen-5-ol]?
**A.** pIC50 [1]: 7.70; pIC50 ([2]; Homo sapiens, LPS-stimulated THP-1, IL-8 in supernatant by ELISA, read-out: IC50 (IL8)): 7.43; efficiency with respect to [3H]-dexamethasone as the standard ([2]; IL-8 inhibition in LPS-stimulated THP-1): 70%; pIC50 [3]: < 6.00
